In patent US9802990B2, “Functional peptides for obesity disorders” (DANONE, S.A., priority 2013, dated 2017):
pIC50: −log10 of the molar value. Where no end group is shown, it is not given here.

What was measured:
PL (pancreatic lipase) = biological target: T1, PL (pancreatic lipase) (Sus scrofa, UniProt P00591); test: PL inhibition assay with 4-methyl umbelliferyl oleate (4MUO), fluorescence; assay type: biochemical; conditions: synthesized peptides
T1 sequence (P00591 1-450): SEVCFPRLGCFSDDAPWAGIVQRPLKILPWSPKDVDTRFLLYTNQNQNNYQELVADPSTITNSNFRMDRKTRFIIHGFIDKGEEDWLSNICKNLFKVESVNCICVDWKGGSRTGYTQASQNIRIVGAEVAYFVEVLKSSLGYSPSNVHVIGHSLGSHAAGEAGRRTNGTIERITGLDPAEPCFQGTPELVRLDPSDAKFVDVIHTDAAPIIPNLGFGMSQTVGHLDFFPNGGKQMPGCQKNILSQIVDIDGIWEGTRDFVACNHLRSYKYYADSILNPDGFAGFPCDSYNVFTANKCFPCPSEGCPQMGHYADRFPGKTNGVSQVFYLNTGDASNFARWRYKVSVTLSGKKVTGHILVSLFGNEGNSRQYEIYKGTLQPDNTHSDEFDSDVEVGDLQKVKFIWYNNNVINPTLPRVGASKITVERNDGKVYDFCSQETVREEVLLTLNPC
Experimental: Inhibition of PL was determined using 4-methyl umbelliferyl oleate (4MUO) as substrate as described by Sugiyama et al. (Oligomeric procyanidins in apple polyphenol are main active components for inhibition of pancreatic lipase and triglyceride absorption. J Agric Food Chem (2007); 55: 4604-4609) with some modifications. Aliquots of 25 μl of each peptide extract were incubated with 25 μl of PL solution (1 mg/ml) and preincubated for 10 minutes at 26° C. with stirring of 500 rpm. Reaction was initiated by adding 50 μl of 4MUO (0.1 mM) dissolved in Dulbecco's buffer. After incubation at 26° C. for 20 minutes with constant stirring (500 rpm) the reaction was stopped by adding 100 μl of 0.1 M sodium citrate buffer (pH 4.2). The amount of 4-methyl umbelliferone released by the enzyme was determined by fluorescence. Peptide extracts were used as inhibitors in the enzymatic assay but had to be diluted 1/20 or 1/50 because of the interference between the fluorescence and the buffer containing the peptides.

[1] = In vitro enzymatic digestion model of the digestive tract (pepsin, pancreatin, bile), HPLC; assay type: in vitro ADME
Description: An in vitro enzymatic digestion model of an in vivo digestive tract was developed for mimicking the physiological conditions to check and certify that each selected peptide was differently degraded throughout the gastro-intestinal tract by the digestive process. Pepsin, pancreatin and bile concentrations were optimized using a published experimental design (Granado-Lorencio et al (2007). J. Agri. Food. Chem., 55, 6387-6394).

[2] = biological target: PLA2 (pancreatic phospholipase A2) (Homo sapiens, UniProt P04054); test: PLA2 inhibition assay by HPLC with DOPC as substrate; assay type: biochemical
Experimental: Inhibition of PLA2 enzyme was determined by High Performance Liquid Chromatography (HPLC) using 1,2-dioleoyl-sn-glycero-3-phosphocholine (DOPC) as substrate as described by Singh et al. (A rapid isocratic high-performance liquid chromatography method for determination of cholesterol and 1,2-dioleoyl-sn-glycero-3-phosphocholine. Journal of Chromatography (2005); 1073:347-353). Waters 2695 HPLC with Waters 2996 Photodiode detector Array and a C8 column Hypersil BDS (250×4.6 mm, […]) were used carrying out an eluent isocratic method formed by a mixture of ammonium phosphate buffer 50 mM pH 2.7:methanol (15:85, v/v).

[3] = system: C. elegans wild type strain N2; test: C. elegans body fat reduction, Nile Red staining; assay type: in vivo, Caenorhabditis elegans
Experimental: The ability to reduce body fat content in the nematode C. elegans was analyzed in a group of 5 peptide extracts previously obtained from glycinin (see Table 4). These samples were selected by their high effect on PL and PLA2 in vitro inhibition. Specifically, 5 peptide extracts were selected from the PLA2 inhibition assay (M20G, M5G, M31G, M27G and M29G). Body fat content was analyzed in the C. elegans wild type strain N2 by Red Nile dying of living nematodes. Experiments were carried out with age-synchronized populations, starting from egg-stage to young adult stage (3-day adults). During the experiments, worms were cultured in the NGM agar plates as control condition, NGM with the corresponding peptide extracts (100 μL/plate) and NGM with 6 μg/mL of Orlistat as positive control. Nile Red was added on top of the NG plates already seeded with Escherichia coli OP50 strain to a final concentration of 0.05 μg/ml. After incubation at 20° C., young adult worms (60 worms per condition) were taken to measure the in vivo fluorescence in a VersaFluor™ Fluorometer System. Fluorescence obtained in treated worms was calculated from fluorescence of worms fed in control conditions (reference sample). Experiments were carried out by duplicate.
From these purified fractions, a total of 11 peptides were selected to be synthesized and evaluated in vivo in the obesity model of C. elegans (Table 9). All peptides were evaluated at 1 μg/mL of final concentration.
We selected 5 peptides obtained from hydrolysis of glycinin with strain 6 (P8a, P6a, P14c, P16f, P14b) The peptides from glycinin were added to a soy fermented product (Savia® from Danone) both alone or mixed at final concentration of 1 μg/mL. Nematodes were fed with these products and then total lipids were quantified by Nile Red staining.

PLA2 (pancreatic phospholipase A2), sequence (P04054 23-148, species assumed): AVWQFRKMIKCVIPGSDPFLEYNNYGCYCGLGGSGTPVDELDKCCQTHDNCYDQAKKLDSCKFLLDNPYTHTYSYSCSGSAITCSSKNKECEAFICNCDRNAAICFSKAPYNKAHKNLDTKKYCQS

- pIC50 (PL (pancreatic lipase)): 4.16
- Degradation (%) ([1]; Gastric phase 30 min.): −1.3%
- Degradation (%) ([1]; Gastric phase 120 min.): −1.0%
- degradation in the in vitro digestion model (in words) ([1]; HPLC, completely degraded = at the beginning of the intestinal phase, resistant ones finally degraded at the end): resistant until the end of the process
- metabolised at 0.25 h ([1]; Intestinal phase 15 min., read-out: Degradation (%)): 51.2%
- metabolised at 0.5 h ([1]; Intestinal phase 30 min., read-out: Degradation (%)): 71.6%
- metabolised at 1 h ([1]; Intestinal phase 60 min., read-out: Degradation (%)): 90.7%
- metabolised at 2 h ([1]; Intestinal phase 120 min., read-out: Degradation (%)): 100%
- metabolised at 5 min ([1]; Oral phase 5 min., read-out: Degradation (%)): 1.7%
- Percentage of PLA2 inhibition ([2]; peptide 0.035 mg/ml): 12.7 ± 6.1%
- Percentage of PLA2 inhibition ([2]; peptide 0.35 mg/ml): 12.9 ± 3.9%
- Percentage of PLA2 inhibition ([2]; peptide 2 mg/ml): 26.0 ± 6.4%
- Percentage of PLA2 inhibition ([2]; peptide 3.5 mg/ml): 20.1 ± 7.7%
Sequence: SVIKPPTD [Peptide P8a, SVIKPPTD]
- % Fluorescence Reduction ([3]; nematodes fed NG with peptides alone or in Savia soy fermented product, alone or mixed, 1 μg/mL final concentration, Nile Red): 41.7 ± 4.02%
- % Fluorescence Reduction C. elegans ([3]; synthesized peptides at 1 μg/mL of final concentration): 44.67 ± 10.5%
